{"source": "patent US20250360113A1", "about": "“ADMINISTRATION OF DHB TO INCREASE BENEFIT OF LOSING WEIGHT OF INTERMITTENT FASTING” (NANJING NUTRABUILDING BIO-TECH CO., LTD., priority 2023, published 2025)", "key": {"ADRB3": {"system": "ADRB3", "assay": "mRNA levels of ADRB3 from inguinal WAT by qRT-PCR", "format": "in vivo, C57BL/6 male mice", "settings": "HFD obese mice", "procedure": "(§1) 50 C57BL/6 male mice aged about 8 weeks, are randomly assigned to five study groups (GA, GB1, GB2, GB3, GB4) of ten mice each (one cage, […]). Mice were maintained in a pathogen free condition under a strict 12 h light/dark cycle (0600/1800 h) with 12-15 cycles/hour of air change. Mice were provided with access to respective feed and water ad libitum as per experimental conditions. Mice were housed under controlled laboratory conditions of temperature and humidity at 23±2° C. and 50±10% RH, respectively. Each study group consisted of ten animals, and treatment details of the individual study groups are given below: • Group A (GA, NC): Normal mice, maintained on normal diet (standard chow, 12% calories from fat; 23% calories from protein and 65% calories from carbohydrates) for 8 weeks, receiving neither EODF nor DHB treatment. • Group B1 (GB1): Obese mice, maintained on high fat diet (HFD, 60% calories from fat, 20% calories from protein, 20% calories from carbohydrate) for 8 weeks, receiving neither EODF nor DHB treatment. • Group B2 (GB2): Obese mice, maintained on HFD for 8 weeks, receiving only EODF and no DHB treatment. • Group B3 (GB3): Obese mice, maintained on HFD for 8 weeks, receiving only DHB treatment and no EODF. • Group B4 (GB4): Obese mice, maintained on HFD for 8 weeks, receiving DHB treatment and EODF combination. DHB was administered daily via intragastric injection (i.g.) according to a level of 70 mg/kg body weight. Mice not receiving DHB were given orally with ultrapure water. The mRNA levels of ADRB3 protein from inguinal WAT were determined by qRT-PCR."}, "[1]": {"assay": "Serum insulin and leptin by ELISA at end of treatment", "format": "in vivo, C57BL/6 male mice", "settings": "HFD obese mice", "procedure": "as §1, with “Serum” for “The mRNA”, “insulin and leptin” for “ADRB3 protein from inguinal WAT”, “determined at the end of the treatment period” for “determined”, “standard ELISA methods. Since one key feature of obesity is the development of insulin and leptin resistance resulting in an elevation of the circulating levels of these two hormones as a consequence of compensatory physiological responses to insulin and leptin insensitivity, thus leptin is one of the major adipocytokines associated with maintaining glucose homeostasis.” for “qRT-PCR.”"}, "[2]": {"settings": "in vitro; cited from earlier work"}, "[3]": {"assay": "Insulin tolerance test (ITT)", "format": "in vivo, C57BL/6 male mice", "settings": "HFD obese mice", "procedure": "as §1, with “water. Insulin tolerance test (ITT): To measure […], ITT were measured in the 6-h fasting mice (NC and HFD groups) by using a glucose analyzer.” for “water.”, “glucose concentrations were measured by venous bleeding at 0, 15, 30, 60 and 120 min after an i.p. injection” for “mRNA levels”, “human insulin at 0.75 U/kg. Towards the end of the final week of the study, ITT was performed for all mice (NC and HFD groups).” for “ADRB3 protein from inguinal WAT were determined by qRT-PCR.”"}, "[4]": {"settings": "DHB 70 mg/kg i.g. daily with or without EODF vs no DHB"}, "[5]": {"settings": "DHB + EODF combination vs EODF only"}}}
{"smiles": "COc1ccc2c(c1OC)CN1CCc3cc4c(cc3C1=C2)OCO4", "note": "[DHB, Dihydroberberine]", "values": [{"measurement": "ADRB3 abundance (mRNA, inguinal WAT)", "setting": "ADRB3; [4]", "value": "increasing"}, {"measurement": "lipolysis specifically in WAT", "setting": "ADRB3; [4]", "value": "upregulated"}, {"measurement": "triggering lipolysis specifically in WAT", "setting": "ADRB3; [5]", "value": "greater effects"}, {"measurement": "insulin resistance (serum levels of insulin)", "setting": "[1]; DHB 70 mg/kg i.g. daily with or without EODF vs no DHB, FIG. 9", "value": "improved"}, {"measurement": "leptin resistance (serum levels of leptin)", "setting": "[1]; DHB 70 mg/kg i.g. daily with or without EODF vs no DHB, FIG. 10", "value": "improved"}, {"measurement": "improving insulin resistance", "setting": "[1]; [5]", "value": "greater effects"}, {"measurement": "improving leptin resistance", "setting": "[1]; [5]", "value": "greater effects"}, {"measurement": "intestinal absorption rate relative to BBR", "setting": "[2]", "value": "five times higher"}, {"measurement": "insulin levels", "setting": "[3]; DHB 70 mg/kg i.g. daily vs no DHB with and without EODF, FIGS. 11-14", "value": "greater reduction"}, {"measurement": "improving the insulin tolerance", "setting": "[3]; [5]", "value": "greater effects"}, {"measurement": "reducing the insulin levels", "setting": "[3]; [5]", "value": "greater effects"}, {"measurement": "insulin tolerance", "setting": "[3]; human insulin 0.75 U/kg i.p., DHB vs no DHB with and without EODF", "value": "better"}]}
